Active and inactive are the calls of the source.
Experiments:
Nonstructural protein 1 = Nonstructural protein 1 (Influenza A virus, UniProt Q194T2); assay type: functional, Influenza A virus (A/California/07/2009(H1N1))
[1] = ATP-based viability loss in HeLa cells – cell-based, CellTiter-Glo luminescence, dry powder, set 2, cytotoxicity control, dose response (AID 720593); assay type: functional
Vero [2] = test: viability loss in Vero cells – cell-based, plate reader, cherry-pick samples, cytotoxicity control, dose response (AID 687020); assay type: functional; conditions: Chlorocebus sabaeus
A549 = test: viability loss in A549 cells – cell-based, plate reader, cherry-pick samples, cytotoxicity control, dose response (AID 687028); assay type: functional; conditions: Homo sapiens
Galanin receptor type 3 = Galanin receptor type 3 (Homo sapiens, UniProt O60755); test: Fluorescence-based cell-based primary high throughput dose response assay to identify antagonists of the Galanin Receptor 3 (GalR3).; assay type: functional
Chain of Galanin receptor type 3 (O60755 whole entry): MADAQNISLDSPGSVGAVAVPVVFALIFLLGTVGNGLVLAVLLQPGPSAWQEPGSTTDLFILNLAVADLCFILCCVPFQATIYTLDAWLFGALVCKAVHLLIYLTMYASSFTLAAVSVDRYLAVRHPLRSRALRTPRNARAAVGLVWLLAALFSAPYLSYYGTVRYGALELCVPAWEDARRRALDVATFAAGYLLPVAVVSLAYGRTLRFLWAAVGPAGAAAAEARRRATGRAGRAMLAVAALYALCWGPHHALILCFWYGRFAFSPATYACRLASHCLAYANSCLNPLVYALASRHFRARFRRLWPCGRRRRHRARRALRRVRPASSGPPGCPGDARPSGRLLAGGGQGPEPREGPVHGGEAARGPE

cells = assay type: functional, cell-based; conditions: HEK-CNG
[3] = biological target: Matrix metalloproteinase-14 (Homo sapiens, UniProt P50281); test: SAR confirmation of uHTS hits for a small molecule inhibitors of MT1-MMP activation in a fluorescence assay.; assay type: functional
Fatty acid synthase = Fatty acid synthase (Homo sapiens, UniProt P49327); test: inhibition of human FAS-TE enzyme activity – biochemical, endpoint fluorescence intensity, powder samples, SAR follow-up (AID 652164); assay type: functional
Chain of Fatty acid synthase (P49327 whole entry): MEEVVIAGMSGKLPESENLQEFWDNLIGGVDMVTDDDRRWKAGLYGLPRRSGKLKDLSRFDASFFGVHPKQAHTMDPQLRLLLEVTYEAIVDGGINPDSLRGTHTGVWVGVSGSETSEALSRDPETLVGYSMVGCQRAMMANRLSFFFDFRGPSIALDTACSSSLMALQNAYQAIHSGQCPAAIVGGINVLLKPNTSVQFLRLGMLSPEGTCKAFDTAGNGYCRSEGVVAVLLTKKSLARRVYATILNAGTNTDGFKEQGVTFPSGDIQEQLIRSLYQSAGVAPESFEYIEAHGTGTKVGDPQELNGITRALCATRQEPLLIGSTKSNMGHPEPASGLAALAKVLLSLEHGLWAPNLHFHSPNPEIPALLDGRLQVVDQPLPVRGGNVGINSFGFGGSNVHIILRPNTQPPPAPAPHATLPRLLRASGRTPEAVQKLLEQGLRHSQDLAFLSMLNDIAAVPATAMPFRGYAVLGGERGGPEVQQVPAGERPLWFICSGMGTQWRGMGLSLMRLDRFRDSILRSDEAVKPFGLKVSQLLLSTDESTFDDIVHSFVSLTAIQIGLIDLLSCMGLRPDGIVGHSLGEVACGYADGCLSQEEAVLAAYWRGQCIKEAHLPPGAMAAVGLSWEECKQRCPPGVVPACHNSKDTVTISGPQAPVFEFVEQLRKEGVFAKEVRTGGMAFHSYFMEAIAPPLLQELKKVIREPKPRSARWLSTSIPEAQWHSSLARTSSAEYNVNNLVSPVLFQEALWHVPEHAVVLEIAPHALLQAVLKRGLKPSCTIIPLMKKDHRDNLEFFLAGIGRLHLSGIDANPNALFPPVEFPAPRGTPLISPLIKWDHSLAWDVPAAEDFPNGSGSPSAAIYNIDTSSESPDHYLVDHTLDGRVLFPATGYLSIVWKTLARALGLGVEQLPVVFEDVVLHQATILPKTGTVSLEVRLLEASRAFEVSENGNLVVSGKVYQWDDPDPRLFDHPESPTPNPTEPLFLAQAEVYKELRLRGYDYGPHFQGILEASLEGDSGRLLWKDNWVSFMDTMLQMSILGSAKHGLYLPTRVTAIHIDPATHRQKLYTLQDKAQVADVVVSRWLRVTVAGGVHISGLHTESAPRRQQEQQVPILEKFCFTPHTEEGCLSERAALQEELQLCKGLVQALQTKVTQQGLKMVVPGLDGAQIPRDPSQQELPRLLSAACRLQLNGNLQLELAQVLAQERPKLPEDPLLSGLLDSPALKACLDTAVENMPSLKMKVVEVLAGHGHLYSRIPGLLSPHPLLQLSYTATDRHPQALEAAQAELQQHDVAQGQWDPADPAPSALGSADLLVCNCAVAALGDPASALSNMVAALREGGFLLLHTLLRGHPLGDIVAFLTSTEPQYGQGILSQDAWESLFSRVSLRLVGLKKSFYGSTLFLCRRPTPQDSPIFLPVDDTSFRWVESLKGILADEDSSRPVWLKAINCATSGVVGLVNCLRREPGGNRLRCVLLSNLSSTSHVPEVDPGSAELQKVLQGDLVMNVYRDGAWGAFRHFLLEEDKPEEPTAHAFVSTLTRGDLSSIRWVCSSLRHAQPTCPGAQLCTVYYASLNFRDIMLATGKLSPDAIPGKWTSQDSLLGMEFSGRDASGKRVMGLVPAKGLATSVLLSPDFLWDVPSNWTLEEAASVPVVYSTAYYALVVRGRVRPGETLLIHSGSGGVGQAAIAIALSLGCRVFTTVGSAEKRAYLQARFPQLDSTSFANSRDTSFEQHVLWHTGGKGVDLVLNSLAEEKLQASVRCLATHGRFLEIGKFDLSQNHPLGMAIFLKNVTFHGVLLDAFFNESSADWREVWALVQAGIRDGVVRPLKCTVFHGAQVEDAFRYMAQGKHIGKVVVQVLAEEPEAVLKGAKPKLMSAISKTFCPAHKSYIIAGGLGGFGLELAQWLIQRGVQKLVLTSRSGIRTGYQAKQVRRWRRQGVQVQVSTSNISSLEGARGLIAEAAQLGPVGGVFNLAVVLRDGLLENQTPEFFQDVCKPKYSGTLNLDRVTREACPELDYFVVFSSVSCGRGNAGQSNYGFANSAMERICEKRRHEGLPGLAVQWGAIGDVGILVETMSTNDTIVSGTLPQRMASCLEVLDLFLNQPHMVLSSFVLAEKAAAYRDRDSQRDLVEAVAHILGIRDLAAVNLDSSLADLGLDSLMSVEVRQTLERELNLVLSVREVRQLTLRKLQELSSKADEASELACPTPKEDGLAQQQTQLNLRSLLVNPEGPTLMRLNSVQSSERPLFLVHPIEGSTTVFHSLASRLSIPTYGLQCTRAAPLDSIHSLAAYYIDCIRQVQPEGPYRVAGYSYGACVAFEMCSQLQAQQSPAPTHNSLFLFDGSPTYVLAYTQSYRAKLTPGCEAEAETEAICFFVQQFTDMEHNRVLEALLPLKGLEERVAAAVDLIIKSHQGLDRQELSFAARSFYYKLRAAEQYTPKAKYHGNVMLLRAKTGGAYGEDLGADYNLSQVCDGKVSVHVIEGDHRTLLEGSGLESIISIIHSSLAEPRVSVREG

[4] = activation of miR-122 Renilla sensor silencing – cell-based, Huh7 psiCHECK-miR122, Renilla luciferase, cherry-picked, dose response (AID 651956); assay type: functional;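 also: huh7 hepatoma cells stably carrying a psiCHECK-2 miR-122 sensor plasmid; renilla luciferase signal reporting endogenous miR-122 activity after 48 h compound exposure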
[5] = general mammalian cell viability loss – activator set, cherry-pick, cytotoxicity control for miR-122 modulator project, dose response (AID 720690); assay type: functional, cell-based;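 also: HEK293T human cells scored for general mammalian cytotoxicity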
Albumin = Albumin (Bos taurus, UniProt P02769); test: Counterscreen for inhibitors of T-cell receptor (TCR)-CD3 interaction: Fluorescence-based biochemical high throughput dose response assay to identify inhibitors of T-cell receptor (TCR)-CD3 interaction using a TAMRA-labeled BSA probe.; assay type: functional
Chain of Albumin (P02769 whole entry): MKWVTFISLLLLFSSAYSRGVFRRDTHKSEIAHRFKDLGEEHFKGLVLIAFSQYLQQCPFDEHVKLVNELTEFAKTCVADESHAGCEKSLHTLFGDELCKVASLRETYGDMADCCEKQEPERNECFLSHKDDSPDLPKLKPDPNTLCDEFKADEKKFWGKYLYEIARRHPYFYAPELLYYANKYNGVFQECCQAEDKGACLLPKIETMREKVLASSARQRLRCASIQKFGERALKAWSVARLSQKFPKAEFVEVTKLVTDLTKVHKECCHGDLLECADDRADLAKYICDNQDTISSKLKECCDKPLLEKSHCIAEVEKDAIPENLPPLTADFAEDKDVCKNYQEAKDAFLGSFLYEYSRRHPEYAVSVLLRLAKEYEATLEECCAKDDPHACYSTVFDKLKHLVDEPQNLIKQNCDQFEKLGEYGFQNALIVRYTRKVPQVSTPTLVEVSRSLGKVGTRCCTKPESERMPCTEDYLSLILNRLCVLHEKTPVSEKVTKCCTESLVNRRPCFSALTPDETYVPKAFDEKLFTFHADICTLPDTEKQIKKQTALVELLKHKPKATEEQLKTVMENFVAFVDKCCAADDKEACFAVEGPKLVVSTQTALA

[6] = Late stage assay provider results from the probe development effort to identify selective inhibitors of heat shock protein 90 (HSP90): Absorbance-based cell proliferation assay in SKBR3 cells.; assay type: functional; conditions: SK-BR-3
[7] = Late stage assay provider results from the probe development effort to identify selective inhibitors of heat shock protein 90 (HSP90): Absorbance-based cell proliferation assay in MCF7 cells.; assay type: functional
Beta-lactamase [8] = biological target: Beta-lactamase (Salmonella choleraesuis (strain SC-B67), UniProt Q5J463); test: Epi-absorbance-based counterscreen for selective VIM-2 inhibitors: dose response biochemical high throughput screening assay to identify inhibitors of TEM-1 serine-beta-lactamase.
Chain of Beta-lactamase (Salmonella choleraesuis (strain SC-B67), UniProt Q5J463) (Q5J463 whole entry): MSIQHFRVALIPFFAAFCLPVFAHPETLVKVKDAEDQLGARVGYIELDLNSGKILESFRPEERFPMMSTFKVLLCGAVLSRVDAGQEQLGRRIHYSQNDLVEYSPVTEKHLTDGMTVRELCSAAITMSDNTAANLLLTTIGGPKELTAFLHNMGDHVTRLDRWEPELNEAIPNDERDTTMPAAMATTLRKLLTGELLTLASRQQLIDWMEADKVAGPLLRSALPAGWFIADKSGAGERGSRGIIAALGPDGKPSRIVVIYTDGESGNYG

Beta-lactamase [9] = biological target: T1, Beta-lactamase (Pseudomonas aeruginosa, UniProt Q79MP6); test: inhibition of IMP-1 beta-lactamase activity – biochemical, epi-absorbance, selectivity assay for VIM-2 inhibitor project, dose response (AID 1920)
T1 sequence (Q79MP6 whole entry): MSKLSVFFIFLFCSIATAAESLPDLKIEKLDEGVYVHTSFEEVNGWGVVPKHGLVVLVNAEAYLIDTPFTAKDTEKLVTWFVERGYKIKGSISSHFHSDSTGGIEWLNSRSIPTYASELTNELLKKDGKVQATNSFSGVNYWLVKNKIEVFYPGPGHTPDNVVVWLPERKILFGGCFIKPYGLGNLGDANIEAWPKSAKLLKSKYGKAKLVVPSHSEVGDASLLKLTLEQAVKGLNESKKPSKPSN

Beta-lactamase [10] = biological target: T1, Beta-lactamase; test: […] counterscreen for selective VIM-2 inhibitors: dose response biochemical high throughput screening assay to identify inhibitors of IMP-1 metallo-beta-lactamase.
[11] = TNFa-induced NF-kB reporter signal decrease – HEK293 LMP1 reporter cells, dry powder, set 2, selectivity assay for EBV LMP1 NF-kB inhibitor project, dose response (AID 624369); assay type: functional
[12] = test system: Streptococcus sp. 'group A'; test: Streptococcus pyogenes SK(-)GAS viability under kanamycin – luminescence, BacTiterGlo, confirmation, counter-screen for streptokinase expression inhibitor project, dose response (AID 1900); assay type: functional, organism-based
Streptococcus = test: GAS UMAA2166 growth inhibition – luminescence, BacTiterGlo, counter-screen for streptokinase expression inhibitor project, dose response (AID 1915); assay type: functional, organism-based;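 also: potency for reduction of bacterial viability or growth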
Vero [13] = test: cells; assay type: functional; conditions: Chlorocebus sabaeus
[14] = HGIII-sPLA2 enzyme inhibition potency – biochemical, QFRET, IC50, dose response (AID 743457);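 also: green fluorescence rise as the enzyme cleaves BODIPY PC-A2 in liposomes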
Paired box protein Pax-8 = Paired box protein Pax-8 (Homo sapiens, UniProt Q06710); test: PAX8 transcriptional activity inhibition in RMG-I – RMG-I cells, luciferase, cherry-pick, dose response (AID 687027); assay type: functional, cell-based;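 also: luciferase reporter driven by Pax8 target thyroperoxidase promoter measured by SteadyGlo luminescence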
[15] = general cell-killing toxicity readout – plate reader, dry powder samples, cytotoxicity control for PAX8 inhibitor project, dose response (AID 743021); assay type: functional, cell-based
[16] = Luminescence Cell-Based Dose Confirmation HTS to Identify Activators of 5'UTR Stem-Loop Driven Alpha-Synuclein mRNA Translation in H4 Neuroglioblastoma Cells. [Related pubchem assays: 1829 (Project Summary), 1814 (Primary HTS)]; assay type: functional
[17] = Luminescence Cell-Based Dose Response HTS to Identify Activators of Luciferase Translation or Activity in H4 […] Cells. [Related pubchem assays: 1829 (Project Summary), 1814 (Primary HTS)]; assay type: functional
H4 = test: Luminescence Cell-Based Dose Response HTS to Identify Activators of 5'UTR Stem-Loop Driven Prion Protein mRNA Translation in H4 Neuroglioblastoma Cells. [Related pubchem assays: 1829 (Project Summary), 1814 (Primary HTS)]; assay type: functional; conditions: Homo sapiens
INS1 = test: INS-1E survival protection against cytokine death – cell-based, luminescence, retest, dose response (AID 449756); assay type: functional; conditions: Rattus norvegicus;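 also: cell death triggered by IL-1 beta plus TNF-alpha plus IFN-gamma mixture; protective hits raise ATP signal compared with cytokine alone wells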
[18] = viability loss in HepG2 hepatoma cells – cell-based, ATP luminescence, cherry-pick, activator set 2, cytotoxicity control, dose response (AID 1053143); assay type: functional
HEK293 [19] = test: inhibition of NOD1-driven NF-kB reporter – cell-based, luminescence, uHTS, primary screen (AID 1578); assay type: functional; conditions: Homo sapiens
BJ [20] = test: BJ-TERT fibroblast viability loss – cell-based, RAS-independent, luminescence, dose response (AID 1933); assay type: functional; conditions: Homo sapiens
HEK293 [21] = test: cells; assay type: functional, cell-based; conditions: Homo sapiens
BJ [22] = test: cells; assay type: functional, cell-based; conditions: Homo sapiens
HEK293 [23] = test: cells; assay type: functional, cell-based; conditions: Homo sapiens; remark: listed apart in the source
[24] = biological target: Luciferin 4-monooxygenase (Photinus pyralis, UniProt P08659); test: inhibition of purified Photinus pyralis luciferase – biochemical, luminescence, dose response (AID 1891)
Chain of Luciferin 4-monooxygenase (P08659 whole entry): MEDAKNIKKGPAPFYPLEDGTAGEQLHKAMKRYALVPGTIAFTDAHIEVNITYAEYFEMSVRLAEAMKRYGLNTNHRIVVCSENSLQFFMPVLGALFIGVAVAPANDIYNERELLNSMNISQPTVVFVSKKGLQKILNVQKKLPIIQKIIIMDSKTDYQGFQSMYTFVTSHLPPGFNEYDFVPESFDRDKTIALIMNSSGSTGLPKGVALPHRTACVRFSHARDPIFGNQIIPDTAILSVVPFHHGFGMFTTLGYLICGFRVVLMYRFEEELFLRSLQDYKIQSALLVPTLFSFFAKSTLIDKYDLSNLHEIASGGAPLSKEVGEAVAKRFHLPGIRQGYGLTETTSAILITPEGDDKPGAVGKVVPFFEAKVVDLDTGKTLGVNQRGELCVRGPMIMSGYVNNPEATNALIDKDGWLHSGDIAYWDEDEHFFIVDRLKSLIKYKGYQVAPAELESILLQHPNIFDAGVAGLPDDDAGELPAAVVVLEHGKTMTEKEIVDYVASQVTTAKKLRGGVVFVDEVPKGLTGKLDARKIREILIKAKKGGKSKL

[25] = Luminescence Cell-Based Dose Confirmation HTS to Identify Inhibitors of Platelet Dense Granule Release. [Related pubchem assays: 1663 (Primary HTS), 1678 (Summary of Project)]; assay type: functional
[26] = biological target: Nucleotide-binding oligomerization domain-containing protein 2 (Homo sapiens, UniProt Q9HC29); test: inhibition of NOD2-driven NF-kB reporter – cell-based, luminescence, uHTS, HEK293 (AID 1566); assay type: functional
HEK293 [27] = test: cells; assay type: functional, cell-based; conditions: Homo sapiens; remark: listed apart in the source
BJ [28] = test: BJ-TERT-LT-ST fibroblast viability loss – cell-based, RAS-independent, luminescence, dose response (AID 1935); assay type: functional; conditions: Homo sapiens;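 also: BJ fibroblasts immortalized with TERT plus LT and ST oncogenes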
[29] = DRD fibroblast viability loss – cell-based, non-viral oncogenic, luminescence, dose response (AID 1934); assay type: functional; conditions: Homo sapiens
[30] = biological target: Disintegrin and metalloproteinase domain-containing protein 17 (Homo sapiens, UniProt P78536); test: exosite inhibitors of ADAM17, dose response, biochemical (AID 743260)
[31] = inhibition of ADAM10 peptide cleavage – biochemical, FRET peptide substrate, recombinant human ADAM10, selectivity assay for ADAM17 exosite inhibitor project, dose response (AID 743259);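 also: ADAM10 enzyme cleaving a FRET peptide substrate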

Chain of Nonstructural protein 1 (Q194T2 whole entry): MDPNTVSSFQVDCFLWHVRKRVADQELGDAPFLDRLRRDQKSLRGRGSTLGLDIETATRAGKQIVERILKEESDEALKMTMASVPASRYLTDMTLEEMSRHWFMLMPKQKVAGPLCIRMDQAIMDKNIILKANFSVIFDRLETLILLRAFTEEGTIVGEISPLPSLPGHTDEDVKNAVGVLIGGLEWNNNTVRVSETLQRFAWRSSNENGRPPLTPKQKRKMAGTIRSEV

## c1ccc(-c2n[nH]c(-c3ccncc3)n2)nc1
Nonstructural protein 1
  IC50: 9.19 µM (active)
[1]
  AC50: > 52 µM (inactive)

## Nc1nc2ccccc2n1Cc1ccc(Cl)c(Cl)c1
Vero [2]
  AC50: 1.28 µM (active)
A549
  AC50: 2.82 µM (active)

## CCNCC(O)c1cccc(O)c1 (stereo unspecified) [ETILEFRINE]
Galanin receptor type 3
  IC50: 1.33 µM (active)
cells
  EC50: > 30 µM (inactive)

## CN1/C(=C/C=C/c2n(C)c3cc([N+](=O)[O-])c([N+](=O)[O-])cc3[n+]2C)C(C)(C)c2ccccc21
[3]
  IC50: 6.88 µM (active)

## CCC(=O)Nc1nc(-c2ccc(S(=O)(=O)N3CCC(C)CC3)cc2)cs1
Fatty acid synthase
  IC50: > 80 µM (inactive)

## CO[C@@H]1CN(C)C(=O)c2ccc(NC(=O)c3ccc(Oc4ccccc4)cc3)cc2OC[C@H](C)NC[C@@H]1C
[4]
  AC50: 11.3 µM (active)
[5]
  AC50: 23.6 µM (active)

## O=c1cc(-c2ccc(O)c(O)c2)oc2ccc3ccccc3c12
Albumin
  IC50: > 94.2 µM (inactive)

## O=C(Nc1ccccc1I)c1coc(=O)c(Br)c1
[6]
  IC50: 45.3 µM (inactive)
[7]
  IC50: 29.4 µM (inactive)

## O=Cc1c(O)nc2ccccc2c1NCc1ccc(Cl)cc1
Beta-lactamase [8]
  IC50: > 59.6 µM (inactive)
Beta-lactamase [9]
  IC50: > 59.6 µM (inactive)
Beta-lactamase [10]
  IC50: > 59.6 µM (inactive)

## O=C(C[C@@H]1C[C@H]2c3cc(NC(=O)c4ccc5c(c4)OCO5)ccc3O[C@H]2[C@H](CO)O1)NC1CCCCC1
[11]
  AbsAC35: 166.85 µM

## COc1ccc(C(=O)NC(=S)NNC(=O)[C@H]2C[C@@H]2c2ccccc2)cc1OC
[12]
  EC50: 1.36 µM (active)
Streptococcus
  EC50: 3.19 µM (active)
Vero [13]
  CC50: > 25 µM (active)
[14]
  IC50: 65.8 µM (inactive)

## COC(=O)C1C=CC(OC2OC(COC(C)=O)C(OC(C)=O)C(OC(C)=O)C2OC(C)=O)n2c(=O)n(-c3ccccc3)c(=O)n21 (stereo unspecified)
Paired box protein Pax-8
  AC50: 3.41 µM (active)
[15]
  AC50: 40 µM (active)

## COc1ccc(C2CC(c3ccc4ccccc4c3OC(C)=O)=NN2C(C)=O)cc1 (stereo unspecified)
[16]
  EC50: 0.512 µM (active)
[17]
  EC50: 3.82 µM (active)
H4
  EC50: 0.456 µM (active)
INS1
  AC50: 3.3 µM (active)
[18]
  AC50: 26 µM (active)

## Cc1ccccc1S(=O)(=O)Cc1ccc(C(=O)N2CCN(c3cccc(C)c3C)CC2)o1
HEK293 [19]
  EC50: 5.29 µM (active)
BJ [20]
  EC50: 11.1 µM (active)
HEK293 [21]
  IC50: 3.96 µM (active)
BJ [22]
  EC50: 10 µM (inconclusive)
HEK293 [23]
  IC50: 10.5 µM (active)
[24]
  EC50: 28.5 µM (active)
[25]
  EC50: > 112 µM (not active)
[26]
  EC50: 10.8 µM (active)
HEK293 [27]
  IC50: > 20 µM (inactive)
BJ [28]
  EC50: 4.92 µM (active)
[29]
  EC50: 4.95 µM (active)
[30]
  IC50: > 69.6 µM (inactive)
[31]
  IC50: 11.7 µM (inactive)

From ChEMBL document CHEMBL1201862, “PubChem BioAssay data set” (2004)
